Measured values: patent publication US6358885B1, “Substituted phenylheterocyclic herbicides” (Mississippi State University, priority 1992, dated 2002)

What was measured:
Assay in all cases: Test B preemergence/postemergence greenhouse plant response rating 0 to 10
wild buckwheat = format: in vivo, Polygonum convolvulus; settings: for Plant response rating, Wild buckwheat: 0 to 10 scale
Outline: (§1)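 Planted seeds are treated preemergence with compound dissolved in a non-phytotoxic solvent, while postemergence applications go onto plants of two to eighteen cm. Plants stay in the greenhouse twelve to sixteen days and are then rated visually relative to controls.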

cheatgrass = format: in vivo, Bromus secalinus; settings: for Plant response rating, Cheatgrass: 0 to 10 scale
Outline: as §1

chickweed = format: in vivo, Stellaria media; settings: for Plant response rating, Chickweed: 0 to 10 scale
Outline: as §1

wheat = format: in vivo, Triticum aestivum; settings: for Plant response rating, Wheat: 0 to 10 scale
Outline: as §1

barley = format: in vivo, Hordeum vulgare; settings: for Plant response rating, Barley: 0 to 10 scale
Outline: as §1

rape = format: in vivo, Brassica napus; settings: for Plant response rating, Rape: 0 to 10 scale
Outline: as §1

cocklebur = format: in vivo, Xanthium pensylvanicum; settings: for Plant response rating, Cocklebur: 0 to 10 scale
Outline: as §1

rice = format: in vivo, Oryza sativa; settings: for Plant response rating, Rice: 0 to 10 scale
Outline: as §1

morningglory = format: in vivo, Ipomoea hederacea; settings: for Plant response rating, Morningglory: 0 to 10 scale
Outline: as §1

sorghum = format: in vivo, Sorghum bicolor; settings: for Plant response rating, Sorghum: 0 to 10 scale
Outline: as §1

lambsquarters = format: in vivo, Chenopodium album; settings: for Plant response rating, Lambsquarter: 0 to 10 scale
Outline: as §1

soybean = format: in vivo, Glycine max; settings: for Plant response rating, Soybean: 0 to 10 scale
Outline: as §1

giant foxtail = format: in vivo, Setaria faberii; settings: for Plant response rating, Giant foxtail: 0 to 10 scale
Outline: as §1

purple nutsedge = format: in vivo, Cyperus rotundus; settings: for Plant response rating, Nutsedge: 0 to 10 scale
Outline: as §1

wild oat = format: in vivo, Avena fatua; settings: for Plant response rating, Wild oat: 0 to 10 scale
Outline: as §1

corn = format: in vivo, Zea mays; settings: for Plant response rating, Corn: 0 to 10 scale
Outline: as §1

bedstraw = format: in vivo, Galium aparine; settings: for Plant response rating, Bedstraw: 0 to 10 scale
Outline: as §1

crabgrass = format: in vivo, Digitaria spp.; settings: for Plant response rating, Crabgrass: 0 to 10 scale
Outline: as §1

blackgrass = format: in vivo, Alopecurus myosuroides; settings: for Plant response rating, Blackgrass: 0 to 10 scale
Outline: as §1

cotton = format: in vivo, Gossypium hirsutum; settings: for Plant response rating, Cotton: 0 to 10 scale
Outline: as §1

velvetleaf = format: in vivo, Abutilon theophrasti; settings: for Plant response rating, Velvetleaf: 0 to 10 scale
Outline: as §1

barnyardgrass = format: in vivo, Echinochloa crus-galli; settings: for Plant response rating, Barnyardgrass: 0 to 10 scale
Outline: as §1

sugar beet = format: in vivo, Beta vulgaris; settings: for Plant response rating, Sugar beet: 0 to 10 scale
Outline: as §1

SMILES: O=C1COc2cc(F)c(-c3nn4c(c3Br)CCCC4)cc2N1 [Compound 80]
- Plant response rating, Wild buckwheat (wild buckwheat; POSTEMERGENCE, Rate 50 g/ha): 10
- Plant response rating, Wild buckwheat (wild buckwheat; PREEMERGENCE, Rate 50 g/ha): 3
- Plant response rating (0 to 10 scale), Wild buckwheat (wild buckwheat; PREEMERGENCE, Rate 200 g/ha): 3
- Plant response rating, Wild buckwheat (wild buckwheat; Rate 200 g/ha, POSTEMERGENCE): 10
- Plant response rating, Cheatgrass (cheatgrass; POSTEMERGENCE, Rate 50 g/ha): 5
- Plant response rating, Cheatgrass (cheatgrass; PREEMERGENCE, Rate 50 g/ha): 2
- Plant response rating (0 to 10 scale), Cheatgrass (cheatgrass; PREEMERGENCE, Rate 200 g/ha): 3
- Plant response rating, Cheatgrass (cheatgrass; Rate 200 g/ha, POSTEMERGENCE): 6
- Plant response rating, Chickweed (chickweed; POSTEMERGENCE, Rate 50 g/ha): 4
- Plant response rating, Chickweed (chickweed; PREEMERGENCE, Rate 50 g/ha): 0
- Plant response rating (0 to 10 scale), Chickweed (chickweed; PREEMERGENCE, Rate 200 g/ha): 3
- Plant response rating, Chickweed (chickweed; Rate 200 g/ha, POSTEMERGENCE): 7
- Plant response rating, Wheat (wheat; POSTEMERGENCE, Rate 50 g/ha): 4
- Plant response rating, Wheat (wheat; PREEMERGENCE, Rate 50 g/ha): 0
- Plant response rating (0 to 10 scale), Wheat (wheat; PREEMERGENCE, Rate 200 g/ha): 2
- Plant response rating, Wheat (wheat; Rate 200 g/ha, POSTEMERGENCE): 4
- Plant response rating, Barley (barley; POSTEMERGENCE, Rate 50 g/ha): 3
- Plant response rating, Barley (barley; PREEMERGENCE, Rate 50 g/ha): 0
- Plant response rating (0 to 10 scale), Barley (barley; PREEMERGENCE, Rate 200 g/ha): 0
- Plant response rating, Barley (barley; Rate 200 g/ha, POSTEMERGENCE): 4
- Plant response rating, Rape (rape; POSTEMERGENCE, Rate 50 g/ha): 10
- Plant response rating, Rape (rape; PREEMERGENCE, Rate 50 g/ha): 4
- Plant response rating (0 to 10 scale), Rape (rape; PREEMERGENCE, Rate 200 g/ha): 10
- Plant response rating, Rape (rape; Rate 200 g/ha, POSTEMERGENCE): 10
- Plant response rating, Cocklebur (cocklebur; POSTEMERGENCE, Rate 50 g/ha): 9
- Plant response rating, Cocklebur (cocklebur; PREEMERGENCE, Rate 50 g/ha): 0
- Plant response rating (0 to 10 scale), Cocklebur (cocklebur; PREEMERGENCE, Rate 200 g/ha): 0
- Plant response rating, Cocklebur (cocklebur; Rate 200 g/ha, POSTEMERGENCE): 10
- Plant response rating, Rice (rice; POSTEMERGENCE, Rate 50 g/ha): 6
- Plant response rating, Rice (rice; PREEMERGENCE, Rate 50 g/ha): 2
- Plant response rating (0 to 10 scale), Rice (rice; PREEMERGENCE, Rate 200 g/ha): 4
- Plant response rating, Rice (rice; Rate 200 g/ha, POSTEMERGENCE): 8
- Plant response rating, Morningglory (morningglory; POSTEMERGENCE, Rate 50 g/ha): 10
- Plant response rating, Morningglory (morningglory; PREEMERGENCE, Rate 50 g/ha): 5
- Plant response rating (0 to 10 scale), Morningglory (morningglory; PREEMERGENCE, Rate 200 g/ha): 10
- Plant response rating, Morningglory (morningglory; Rate 200 g/ha, POSTEMERGENCE): 10
- Plant response rating, Sorghum (sorghum; POSTEMERGENCE, Rate 50 g/ha): 4
- Plant response rating, Sorghum (sorghum; PREEMERGENCE, Rate 50 g/ha): 0
- Plant response rating (0 to 10 scale), Sorghum (sorghum; PREEMERGENCE, Rate 200 g/ha): 0
- Plant response rating, Sorghum (sorghum; Rate 200 g/ha, POSTEMERGENCE): 6
- Plant response rating, Lambsquarter (lambsquarters; POSTEMERGENCE, Rate 50 g/ha): 10
- Plant response rating, Lambsquarter (lambsquarters; PREEMERGENCE, Rate 50 g/ha): 10
- Plant response rating (0 to 10 scale), Lambsquarter (lambsquarters; PREEMERGENCE, Rate 200 g/ha): 10
- Plant response rating, Lambsquarter (lambsquarters; Rate 200 g/ha, POSTEMERGENCE): 10
- Plant response rating, Soybean (soybean; POSTEMERGENCE, Rate 50 g/ha): 8
- Plant response rating, Soybean (soybean; PREEMERGENCE, Rate 50 g/ha): 0
- Plant response rating (0 to 10 scale), Soybean (soybean; PREEMERGENCE, Rate 200 g/ha): 0
- Plant response rating, Soybean (soybean; Rate 200 g/ha, POSTEMERGENCE): 9
- Plant response rating, Giant foxtail (giant foxtail; POSTEMERGENCE, Rate 50 g/ha): 4
- Plant response rating, Giant foxtail (giant foxtail; PREEMERGENCE, Rate 50 g/ha): 0
- Plant response rating (0 to 10 scale), Giant foxtail (giant foxtail; PREEMERGENCE, Rate 200 g/ha): 2
- Plant response rating, Giant foxtail (giant foxtail; Rate 200 g/ha, POSTEMERGENCE): 7
- Plant response rating, Nutsedge (purple nutsedge; POSTEMERGENCE, Rate 50 g/ha): 2
- Plant response rating, Nutsedge (purple nutsedge; PREEMERGENCE, Rate 50 g/ha): 0
- Plant response rating (0 to 10 scale), Nutsedge (purple nutsedge; PREEMERGENCE, Rate 200 g/ha): 0
- Plant response rating, Nutsedge (purple nutsedge; Rate 200 g/ha, POSTEMERGENCE): 4
- Plant response rating, Wild oat (wild oat; POSTEMERGENCE, Rate 50 g/ha): 4
- Plant response rating, Wild oat (wild oat; PREEMERGENCE, Rate 50 g/ha): 2
- Plant response rating (0 to 10 scale), Wild oat (wild oat; PREEMERGENCE, Rate 200 g/ha): 7
- Plant response rating, Wild oat (wild oat; Rate 200 g/ha, POSTEMERGENCE): 5
- Plant response rating, Corn (corn; POSTEMERGENCE, Rate 50 g/ha): 4
- Plant response rating, Corn (corn; PREEMERGENCE, Rate 50 g/ha): 0
- Plant response rating (0 to 10 scale), Corn (corn; PREEMERGENCE, Rate 200 g/ha): 0
- Plant response rating, Corn (corn; Rate 200 g/ha, POSTEMERGENCE): 5
- Plant response rating, Bedstraw (bedstraw; POSTEMERGENCE, Rate 50 g/ha): 8
- Plant response rating, Bedstraw (bedstraw; PREEMERGENCE, Rate 50 g/ha): 0
- Plant response rating (0 to 10 scale), Bedstraw (bedstraw; PREEMERGENCE, Rate 200 g/ha): 2
- Plant response rating, Bedstraw (bedstraw; Rate 200 g/ha, POSTEMERGENCE): 10
- Plant response rating, Crabgrass (crabgrass; POSTEMERGENCE, Rate 50 g/ha): 4
- Plant response rating, Crabgrass (crabgrass; PREEMERGENCE, Rate 50 g/ha): 0
- Plant response rating (0 to 10 scale), Crabgrass (crabgrass; PREEMERGENCE, Rate 200 g/ha): 3
- Plant response rating, Crabgrass (crabgrass; Rate 200 g/ha, POSTEMERGENCE): 6
- Plant response rating, Blackgrass (blackgrass; POSTEMERGENCE, Rate 50 g/ha): 3
- Plant response rating, Blackgrass (blackgrass; PREEMERGENCE, Rate 50 g/ha): 0
- Plant response rating (0 to 10 scale), Blackgrass (blackgrass; PREEMERGENCE, Rate 200 g/ha): 3
- Plant response rating, Blackgrass (blackgrass; Rate 200 g/ha, POSTEMERGENCE): 6
- Plant response rating, Cotton (cotton; POSTEMERGENCE, Rate 50 g/ha): 10
- Plant response rating, Cotton (cotton; PREEMERGENCE, Rate 50 g/ha): 0
- Plant response rating (0 to 10 scale), Cotton (cotton; PREEMERGENCE, Rate 200 g/ha): 0
- Plant response rating, Cotton (cotton; Rate 200 g/ha, POSTEMERGENCE): 10
- Plant response rating, Velvetleaf (velvetleaf; POSTEMERGENCE, Rate 50 g/ha): 9
- Plant response rating, Velvetleaf (velvetleaf; PREEMERGENCE, Rate 50 g/ha): 9
- Plant response rating (0 to 10 scale), Velvetleaf (velvetleaf; PREEMERGENCE, Rate 200 g/ha): 10
- Plant response rating, Velvetleaf (velvetleaf; Rate 200 g/ha, POSTEMERGENCE): 10
- Plant response rating, Barnyardgrass (barnyardgrass; POSTEMERGENCE, Rate 50 g/ha): 6
- Plant response rating, Barnyardgrass (barnyardgrass; PREEMERGENCE, Rate 50 g/ha): 0
- Plant response rating (0 to 10 scale), Barnyardgrass (barnyardgrass; PREEMERGENCE, Rate 200 g/ha): 6
- Plant response rating, Barnyardgrass (barnyardgrass; Rate 200 g/ha, POSTEMERGENCE): 8
- Plant response rating, Sugar beet (sugar beet; POSTEMERGENCE, Rate 50 g/ha): 10
- Plant response rating, Sugar beet (sugar beet; PREEMERGENCE, Rate 50 g/ha): 8
- Plant response rating (0 to 10 scale), Sugar beet (sugar beet; PREEMERGENCE, Rate 200 g/ha): 9
- Plant response rating, Sugar beet (sugar beet; Rate 200 g/ha, POSTEMERGENCE): 10
